Where two headings read alike, the source gives them in different places.

The subject of assay [1] is taste bud subfraction P4(B). Briefly: Binding inhibition of 14C sucrose by various substances. Details: species or system bovine.
For assay [2], the target named is taste bud P4(B) subfractions. Briefly: Specific binding: competition of 14C sugars or SSS with unlabeled homologous and heterologous sugars, Scatchard analysis. Details: species or system bovine. Conditions: for Kd: non-linear Scatchard plot, mean ± 1 SEM; for specific binding (competition of 14C sugar or SSS with homologous unlabeled sugar or SSS): taste bud P4(B), FIG. 7.
Procedure: All binding studies were carried out in plastic micro test tubes in a constant temperature shaking bath. […] After incubation the tubes were placed in an ice bath, centrifuged, the supernatant aspirated and 10 μl KRB layered on top of the pellet. The KRB was then aspirated, the top of the test tube cut off with a razor blade just above the bellet, placed into 10 ml Aquasol (New England Nuclear Corp., Boston, Mass.) and the radioactivity determined in a liquid scintillation spectrophotometer. Controls, without filtrates or subfractions, were also included.

Where [3] appears, read: primary class of binding sites, read-out: Kd (dissociation constant), K1.
Where [4] appears, read: secondary class of binding sites, read-out: Kd (dissociation constant), K2.
Setting [5] is: secondary class of binding sites.

Turning to `NC(N)=O` [urea], the “inhibition of 14C sucrose binding” value in assay [1] (urea 5M, 26 μM 14C sucrose) is listed as about 30%.
Take `O=C(O)CN(CCN(CC(=O)O)CC(=O)O)CC(=O)O` [EDTA, ethylenediaminetetraacetic acid]: in assay [1], the “inhibition of 14C sucrose binding” value was “approximately 40%”.
For the compound `O=S(=O)(O)NC1CCCCC1` [CYCLAMATE, cyclamate], the Kd – broadly, the equilibrium constant for the complex coming apart – in assay [2] (setting [3]) was found to be 11.7 ± 2.4 mM; in assay [2] (setting [4]), 32.6 ± 3.9 mM. The “q (concentration of sugar or SSS bound per mg subfraction protein), K1” value in assay [2] (primary class of binding sites) is reported as 4.0 ± 0.9 mM/mg protein. In assay [2] (setting [5]), the “q (concentration of sugar or SSS bound per mg subfraction protein), K2” value is given as 6.6 ± 1.4 mM/mg protein. Further, the “specific binding (competition of 14C sugar or SSS with homologous unlabeled sugar or SSS)” value in assay [2] was “occurred”.
With `O=C1NS(=O)(=O)c2ccccc21` [SACCHARINE, saccharine], the results for the Kd in assay [2] (setting [3]) and in assay [2] (setting [4]) were 18.3 ± 3.9 mM and 66.2 ± 6.8 mM, respectively. In assay [2] (primary class of binding sites), the “q (concentration of sugar or SSS bound per mg subfraction protein), K1” value is recorded as 2.7 ± 1.0 mM/mg protein. Further, the “q (concentration of sugar or SSS bound per mg subfraction protein), K2” value in assay [2] (setting [5]) came to 6.4 ± 0.4 mM/mg protein. Besides, in assay [2], the “specific binding (competition of 14C sugar or SSS with homologous unlabeled sugar or SSS)” value is given as “occurred”.
Regarding `[Cl-].[Cl-].[Zn+2]` [ZnCl2], the “sucrose binding activity restored, of the initial activity measured in the absence of EDTA” value in assay [1] (5 mM EDTA plus 20 mM Zn++) is recorded as “about 85%”.
Regarding `[Cl-].[Na+]` [NaCl], the “inhibition of 14C sucrose binding” value in assay [1] is about 50%.

Values taken from patent US4146501A, “Process for isolating and purifying taste bud receptors for screening and evaluating tastants” (priority 1976, dated 1979).
